Test results taken from ChEMBL document CHEMBL3046386, “Cyclophosphamide analogues: synthesis, spectroscopic study, and antitumor activity of diazaphosphorinanes” (Med Chem Res, 2011).

Experiments:
[1] = Lipophilicity, log P of the compound; settings: octanol/water
[2] = Distribution coefficient, log D of the compound; settings: octanol/water
K562 = experiment: Antiproliferative activity against Homo sapiens (human) K562 cells after 48 hr by MTT assay; assay type: functional, cell-based; settings: K562, 48 h

O=P1(N(CCCl)CCCl)NCCCO1 (stereo unspecified) [CYCLOPHOSPHAMIDE ANHYDROUS]
logP [1]: 1.12 | logD [2]: 0.05

CC1(C)CNP(=O)(Nc2ccc(S(N)(=O)=O)cc2)NC1
logP [1]: -0.78 | logD [2]: -1 | IC50 (K562): 58.2 µM

Cc1ccc(OP2(=O)NCC(C)(C)CN2)cc1
logP [1]: 1.55 | logD [2]: 0.73

CC1(C)CNP(=O)(NC(=O)c2cccc([N+](=O)[O-])c2)NC1
logP [1]: 0.34 | logD [2]: -0.03 | IC50 (K562): 5.08 µM

CC1(C)CNP(=O)(NC(=O)c2ccccc2[N+](=O)[O-])NC1
logP [1]: 0.34 | logD [2]: -0.04 | IC50 (K562): 6.87 µM

CC1(C)CNP(=O)(NC(=O)c2ccc([N+](=O)[O-])cc2)NC1
logP [1]: 0.34 | logD [2]: -0.03 | IC50 (K562): 6.49 µM
